Measurements as given in PubChem BioAssay (NCI).
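1) Cells in 96-well plates. 2) Compound, 48 h, 5 concentrations. 3) Linear interpolation between surrounding doses. 4) Unreached endpoint = highest concentration. The concentration for 50% growth inhibition is given as GI50. TGI marks complete inhibition of growth.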

What was measured:
Assay in all cases: inhibition of tumour cell growth, NCI panel, 48 h
[1] = test system: SK-MEL-2 melanoma
[2] = test system: UO-31 renal
[3] = test system: NCI-H23 lung
[4] = test system: U251 CNS
[5] = test system: SK-MEL-28 melanoma
[6] = test system: A549 NSCLC
[7] = test system: TK-10 renal
[8] = test system: A498 renal
[9] = test system: 786-0 renal
[10] = test system: MCF7 breast

Compound	GI50 [1] [µM]	TGI [1] [µM]	GI50 [2] [µM]	TGI [2] [µM]	GI50 [3] [µM]	TGI [3] [µM]	GI50 [4] [µM]	TGI [4] [µM]	GI50 [5] [µM]	TGI [5] [µM]	GI50 [6] [µM]	TGI [6] [µM]	GI50 [7] [µM]	TGI [7] [µM]	GI50 [8] [µM]	TGI [8] [µM]	GI50 [9] [µM]	TGI [9] [µM]	GI50 [10] [µM]	TGI [10] [µM]
COc1ccc2c(c1)/C(=C\c1c(-c3cc(OC)ccc3OC)nc3sc(C)cn13)C(=O)N2C	17.3	38.5	16.8	> 100	38.5	> 100	39.7	> 100	16	32.3	38.6	> 100	48.7	> 100	27.2	98.7	31.1	> 100	28.3	> 100
O=c1[nH]c2ccccc2c2ccccc12	> 100	> 100	70.9	> 100	> 100	> 100	> 100	> 100	> 100	> 100	> 100	> 100	> 100	> 100	44.7	> 100	> 100	> 100	> 100	> 100
COc1ccc(/C=C/C(=O)c2cc(OC)c(OC)c(OC)c2)cc1OCC(=O)Nc1nc2ccc(OC(F)(F)F)cc2s1	4.97	27.1	1.61	5.07	2.15	6.2	0.703	2.58	3.31	25.9	1.99	4.7	2.08	4.62	7.4	31.7	2.26	4.97	1.32	7.77
O=C1CSCc2sccc21	–	> 100	–	> 100	–	> 100	–	> 100	–	> 100	–	> 100	–	> 100	–	> 100	–	> 100	–	> 100
CC(C)(CN1CCCCC1)C(=O)/C=C/c1ccc(/C=C/C(=O)C(C)(C)CN2CCCCC2)cc1	–	4.62	–	2.54	–	2.04	–	1.18	–	2.65	–	2.97	–	2.31	–	3.08	–	2.79	–	1.77
C/C(=N\NC(=S)N1CCCCC1)c1ccccn1	0.702	3.8	< 0.0123	2.29	< 0.01	9.71	< 0.0105	10.6	1.13	6.66	0.0235	4.14	0.472	4.14	0.228	2.32	0.0517	2.39	< 0.01	6.13
O=C(Oc1cccc2cccnc12)c1cc2c(cc1Cl)SC(N(c1ccc(F)cc1)S(=O)(=O)c1ccc(Br)s1)=NS2(=O)=O	34.3	> 100	34.2	> 100	21.2	59	26	95.6	40.9	> 100	27.1	> 100	38.1	> 100	34.9	> 100	> 100	> 100	21.3	44
